Laboratory results as given in patent US20160213742A1, “COMPOSITIONS AND METHODS FOR THE TREATMENT OF FUNGAL INFECTIONS” (priority 2013, published 2016).
Values after ≈ are worked out from the molar mass of the structure shown.

Columns and labels:
Format in all cases: cell-based
C. krusei ATCC 14243 = assay: microbe, parasite or virus in culture
Description: (§1) The test organisms consisted of strains from the Micromyx collection. Reference isolates were originally received from the American Type Culture Collection (ATCC; Manassas, Va.). Organisms received at Micromyx were initially streaked for isolation on Sabouraud dextrose or potato dextrose agar. Colonies were picked by swab from the medium and resuspended in the appropriate broth containing cryoprotectant. The suspensions were aliquoted into cryogenic vials and maintained at −80° C. Prior to testing, Candida isolates were streaked from the frozen vials on Sabouraud dextrose agar. The yeast isolates were incubated at overnight at 35° C. before use. The fungal isolates were incubated at least 7 days on Sabouraud dextrose agar slants at 35° C. before harvesting.
(§2) Isolates were tested in RPMI medium (Catalog No. SH30011.04; Lot No. AWA92121B; HyClone Labs, Logan, Utah) which was prepared according to CLSI guidelines. The pH of the medium was adjusted to 7.0 with 1 N NaOH. The medium was sterile filtered using a 0.2 μm PES filter and stored at 4° C. until used.
(§3) The MIC assay method employed automated liquid handlers to conduct serial dilutions and liquid transfers. Automated liquid handlers included the Multidrop 384 (Labsystems, Helsinki, Finland), Biomek 2000 and Biomek FX (Beckman Coulter, Fullerton Calif.). The wells in columns 2-12 in standard 96-well microdilution plates (Costar 3795) were filled with 150 μl of the correct diluent (50% DMSO for investigational compounds, 100% DMSO for comparator compounds). These would become the mother plates' from which ‘daughter’ or test plates would be prepared. Stocks were diluted to 40× the desired top concentration in the test plates in the indicated solvent, and 300 μL of the 40× stock was dispensed into the appropriate well in Column 1 of the mother plates. The Biomek 2000 was used to make serial serial 2-fold dilutions through Column 11 in the “mother plate”. The wells of Column 12 contained no drug and served as the organism growth control wells.
(§4) The daughter plates were loaded with 185 μL per well of RPMI described above using the Multidrop 384. The daughter plates were prepared using the Biomek FX which transferred 5 μL of drug solution from each well of a mother plate to the corresponding well of the daughter plate in a single step.
(§5) A standardized inoculum of each organism was prepared. For Candida, colonies were picked from the streak plate and a suspension was prepared in RPMI medium equal to a 0.5 McFarland standard, then diluted 1:100 in RPMI and transferred to compartments of sterile reservoirs divided by length (Beckman Coulter). For the Aspergillus isolates, previously prepared and quantitated suspensions were used to make dilutions in RPMI to reach 20× the final concentration. These dilutions were also transferred to compartments of sterile reservoirs divided by length (Beckman Coulter). The final concentration of the Aspergillus isolates was approximately 0.2-2.5×10^4 CFU/mL.
(§6) The Biomek 2000 was used to inoculate the plates. Daughter plates were placed on the Biomek 2000 work surface reversed so that inoculation took place from low to high drug concentration. The Biomek 2000 delivered 10 μL of standardized inoculum into each well. Thus, the wells of the daughter plates ultimately contained 185 μL of RPMI, 5 μL of drug solution, and 10 μL of inoculum. The final concentration of DMSO in the test well was 2.5% for the evaluated comparators and 1.25% for the investigational agents.
(§7) Plates were stacked 3 high, covered with a lid on the top plate, placed into plastic bags, and incubated at 35° C. for approximately 24-48 hr prior to reading. Plates were read when inoculum was confluent in growth wells. Plates were viewed from the bottom using a plate viewer. […] MICs were read where visible growth of the organism was inhibited. MECs were read where the growth shifted to a small, rounded, compact hyphal form as compared to the hyphal growth seen in the growth control well.

[1] = tested on: C. parapsilosis ATCC 22019; assay: microbe, parasite or virus in culture
Description: as §1, §2, §3, §4, §5, §6, §7

C. glabrata ATCC 90030 = assay: microbe, parasite or virus in culture
Description: as §1, §2, §3, §4, §5, §6, §7

C. albicans ATCC 90028 = assay: microbe, parasite or virus in culture
Description: as §1, §2, §3, §4, §5, §6, §7

A. fumigatus ATCC 13073 = assay: MEC assay (Example 31); conditions: RPMI pH 7.0, 35° C., 24-48 hr
Description: as §1, §2, §3, §4, §5, §6, §7

A. flavus MX 5948 = assay: MEC assay (Example 31); conditions: RPMI pH 7.0, 35° C., 24-48 hr
Description: as §1, §2, §3, §4, §5, §6, §7

A. fumigatus MYA-4609 = assay: MEC assay (Example 31); conditions: RPMI pH 7.0, 35° C., 24-48 hr
Description: as §1, §2, §3, §4, §5, §6, §7

A. fumigatus MYA-3626 = assay: MEC assay (Example 31); conditions: RPMI pH 7.0, 35° C., 24-48 hr
Description: as §1, §2, §3, §4, §5, §6, §7

A. fumigatus MX 5944 = assay: MEC assay (Example 31); conditions: RPMI pH 7.0, 35° C., 24-48 hr
Description: as §1, §2, §3, §4, §5, §6, §7

[2] = C. parapsilosis ATCC 22019, RPMI pH 7.0, 35° C., 24-48 hr

Row | SMILES | MIC (C. krusei ATCC 14243; ATCC 14243, pH 7) [µg/mL] | MIC ([1]; ATCC 22019, pH 7) [µg/mL] | MIC (C. glabrata ATCC 90030; ATCC 90030, pH 7) [µg/mL] | MIC (C. albicans ATCC 90028; ATCC 90028, pH 7) [µg/mL] | MEC (A. fumigatus ATCC 13073) [µg/mL] | MEC (A. flavus MX 5948) [µg/mL] | MEC (A. fumigatus MYA-4609) [µg/mL] | MEC (A. fumigatus MYA-3626) [µg/mL] | MEC (A. fumigatus MX 5944) [µg/mL] | MIC [1, 2] [µg/mL] | MIC (C. krusei ATCC 14243; C. krusei ATCC 14243, RPMI pH 7.0, 35° C., 24-48 hr) [µg/mL] | MIC (C. glabrata ATCC 90030; C. glabrata ATCC 90030, RPMI pH 7.0, 35° C., 24-48 hr) [µg/mL] | MIC (C. albicans ATCC 90028; C. albicans ATCC 90028, RPMI pH 7.0, 35° C., 24-48 hr) [µg/mL]
1 | CC[C@H](C)C[C@H](C)CCCCCCCCC(=O)N[C@H]1C[C@@H](O)[C@@H](NCCN)NC(=O)[C@@H]2[C@@H](O)CCN2C(=O)[C@H]([C@H](O)CCNC(=O)CCNC(=O)[C@H](Cc2ccccc2)NC(=O)[C@H](CC(C)C)NC(=O)[C@H](CCSC)NC(=O)OCC(C)C)NC(=O)[C@H]([C@H](O)[C@@H](O)c2ccc(O)cc2)NC(=O)[C@@H]2C[C@@H](O)CN2C(=O)[C@H]([C@@H](C)O)NC1=O [Compound 5] | >4 | >4 | 4 (≈ 2.42 µM) | 2 (≈ 1.21 µM) | – | – | – | – | – | – | – | – | –
2 | CC[C@H](C)C[C@H](C)CCCCCCCCC(=O)N[C@H]1C[C@@H](O)[C@@H](NCCNC(=O)CCNC(=O)[C@H](Cc2ccccc2)NC(=O)[C@H](CC(C)C)NC(=O)[C@H](CCSC)NC(=O)OCC(C)C)NC(=O)[C@@H]2[C@@H](O)CCN2C(=O)[C@H]([C@H](O)CCN)NC(=O)[C@H]([C@H](O)[C@@H](O)c2ccc(O)cc2)NC(=O)[C@@H]2C[C@@H](O)CN2C(=O)[C@H]([C@@H](C)O)NC1=O [Compound 6] | 8 (≈ 4.83 µM) | >16 | 4 (≈ 2.42 µM) | 2 (≈ 1.21 µM) | – | – | – | – | – | – | – | – | –
3 | CC[C@H](C)C[C@H](C)CCCCCCCCC(=O)N[C@H]1C[C@@H](O)[C@@H](NCCN)NC(=O)[C@@H]2[C@@H](O)CCN2C(=O)[C@H]([C@H](O)CCNC(=O)CCNC(=O)[C@H](Cc2ccccc2)NC(=O)[C@H](CC(C)C)NC(=O)[C@H](CCSC)NC(C)=O)NC(=O)[C@H]([C@H](O)[C@@H](O)c2ccc(O)cc2)NC(=O)[C@@H]2C[C@@H](O)CN2C(=O)[C@H]([C@@H](C)O)NC1=O [Compound 7] | 16 (≈ 10 µM) | 32 (≈ 20 µM) | 8 (≈ 5.01 µM) | 2 (≈ 1.25 µM) | 1 | 1 | 0.5 | 0.5 | 1 | – | – | – | –
4 | CC[C@H](C)C[C@H](C)CCCCCCCCC(=O)N[C@H]1C[C@@H](O)[C@@H](NCCNC(=O)CCNC(=O)[C@H](Cc2ccccc2)NC(=O)[C@H](CC(C)C)NC(=O)[C@H](CCSC)NC(C)=O)NC(=O)[C@@H]2[C@@H](O)CCN2C(=O)[C@H]([C@H](O)CCN)NC(=O)[C@H]([C@H](O)[C@@H](O)c2ccc(O)cc2)NC(=O)[C@@H]2C[C@@H](O)CN2C(=O)[C@H]([C@@H](C)O)NC1=O [Compound 8] | 8 (≈ 5.01 µM) | 32 (≈ 20 µM) | 4 (≈ 2.5 µM) | 2 (≈ 1.25 µM) | 1 | 1 | 1 | 1 | 1 | – | – | – | –
5 | CC[C@H](C)C[C@H](C)CCCCCCCCC(=O)N[C@H]1C[C@@H](O)[C@@H](OCCNC(=O)CCNC(=O)[C@H](Cc2ccccc2)NC(=O)[C@H](CC(C)C)NC(=O)[C@H](CCSC)NC=O)NC(=O)[C@@H]2[C@@H](O)CCN2C(=O)[C@H]([C@H](O)CCN)NC(=O)[C@H]([C@H](O)[C@@H](O)c2ccc(O)cc2)NC(=O)[C@@H]2C[C@@H](O)CN2C(=O)[C@H]([C@@H](C)O)NC1=O [Compound 9] | – | – | 8 (≈ 5.05 µM) | 2 (≈ 1.26 µM) | 0.06 to 0.12 | 0.06 to 0.12 | 0.06 to 0.5 | 0.12 | 0.12 | >16 to 32 | – | – | –
6 | CC[C@H](C)C[C@H](C)CCCCCCCCC(=O)N[C@H]1C[C@@H](O)[C@@H](OCCN)NC(=O)[C@@H]2[C@@H](O)CCN2C(=O)[C@H]([C@H](O)CCNC(=O)CCNC(=O)[C@H](Cc2ccccc2)NC(=O)[C@H](CC(C)C)NC(=O)[C@H](CCSC)NC=O)NC(=O)[C@H]([C@H](O)[C@@H](O)c2ccc(O)cc2)NC(=O)[C@@H]2C[C@@H](O)CN2C(=O)[C@H]([C@@H](C)O)NC1=O [Compound 10] | 16 (≈ 10.1 µM) | 32 (≈ 20.2 µM) | 8 (≈ 5.05 µM) | 2 (≈ 1.26 µM) | 0.25 | 0.12 | 0.12 | 0.12 | 0.12 | – | – | – | –
7 | CC[C@H](C)C[C@H](C)CCCCCCCCC(=O)N[C@H]1C[C@@H](O)[C@@H](NCCNC(=O)C(Cc2ccccc2)NC(=O)C(CC(C)C)NC(=O)C(CCSC)NC(=O)Nc2ccc(Cl)cc2)NC(=O)[C@@H]2[C@@H](O)CCN2C(=O)[C@H]([C@H](O)CCN)NC(=O)[C@H]([C@H](O)[C@@H](O)c2ccc(O)cc2)NC(=O)[C@@H]2C[C@@H](O)CN2C(=O)[C@H]([C@@H](C)O)NC1=O (stereo partly shown) [Compound 13a] | – | – | – | – | – | – | – | – | – | 32 (≈ 19.5 µM) | 16 (≈ 9.77 µM) | 8 (≈ 4.88 µM) | 2 (≈ 1.22 µM)
8 | CC[C@H](C)C[C@H](C)CCCCCCCCC(=O)N[C@H]1C[C@@H](O)[C@@H](NCCN)NC(=O)[C@@H]2[C@@H](O)CCN2C(=O)[C@H]([C@H](O)CCNC(=O)CCC(=O)NCCOCCOCCNC(=O)[C@H](Cc2ccccc2)NC(=O)[C@H](CC(C)C)NC(=O)[C@H](CCSC)NC=O)NC(=O)[C@H]([C@H](O)[C@@H](O)c2ccc(O)cc2)NC(=O)[C@@H]2C[C@@H](O)CN2C(=O)[C@H]([C@@H](C)O)NC1=O [Compound 16] | >32 | >32 | 32 (≈ 18.4 µM) | 2 (≈ 1.15 µM) | – | – | – | – | – | – | – | – | –
9 | CC[C@H](C)C[C@H](C)CCCCCCCCC(=O)N[C@H]1C[C@@H](O)[C@@H](NCCN)NC(=O)[C@@H]2[C@@H](O)CCN2C(=O)[C@H]([C@H](O)CCNC(=O)[C@H](CCCCN)NC=O)NC(=O)[C@H]([C@H](O)[C@@H](O)c2ccc(O)cc2)NC(=O)[C@@H]2C[C@@H](O)CN2C(=O)[C@H]([C@@H](C)O)NC1=O [Compound 25] | 2 (≈ 1.6 µM) | 1 (≈ 0.8 µM) | 0.5 (≈ 0.4 µM) | 0.12 (≈ 0.096 µM) | – | – | – | – | – | – | – | – | –
